Consider 88 compounds from a melting point compilation (Tetko et al.; mined from patent text by program, amines drawn as free bases though some values may be those of a salt).

The structures appear in SMILES notation. Some results are limits rather than exact numbers.

`C[C@H]1CCCC(C)(C)[C@@H]1[C@H](O)c1ccc(C#N)c(F)c1` yielded a melting point of 114 to 116 °C.
The compound `COc1cccc(/C=C/c2cccc(C(=O)O)c2)c1` gave a melting point of 195 to 198 °C.
To `CCCCCc1ccc(-c2ccc(C(C)O)cc2)cc1` (single isomer, unassigned; (-)) belongs 83.8 °C; to `Cc1cc(C2=CC(=O)c3cccc(O)c3C2=O)c(C)[nH]1`, 195 to 196 °C; to `O=C(NC(Cc1cccc(C(F)(F)F)c1)C(=O)N1CCSC1)c1cc2cc(Cl)ccc2[nH]1` (stereo not drawn), 205 to 207 °C.
Consider `CCOC(=O)C(CC)(CC)CCS(N)(=O)=O`, for which the melting point fell in the range of 93 to 94 °C.
On to `O=C1CC(c2cccc(-c3csc(C(=O)NCCO)n3)c2)=Nc2ccc(-n3cccc3)cc2N1`, for which the melting point lay in the range of 236 to 238 °C.
To `CC(C)(C)Nc1c([N+](=O)[O-])cc([N+](=O)[O-])c2nc(C(F)F)[nH]c12` belongs 199 to 201 °C.
To `Cc1cc2occc2c(Cl)n1` belongs 64.5 to 66 °C; to `CCOC(=O)Cn1c(C)cc2c1CCCC2=O`, 101 to 104 °C; to `FC(F)(F)c1nnc2c3cc(Cl)ccc3ccn12`, 228 °C.
To `C=CCc1cccc2c(=O)c(C)c(C=Cc3ccccc3)oc12` belongs 126 °C.
The compound `COc1ccc2c(c1)c(Cc1cc(=O)n(C3CCCCC3)[nH]1)c(C)n2C(=O)c1ccc(Cl)cc1` returned a melting point of 187 to 188 °C.
To `Cc1nn(C)c(C(=O)N(C)C)c1[N+](=O)[O-]` belongs 57 to 59.5 °C.
To `Cn1c(=O)c(-c2ccc(Cl)cc2Cl)cc2c3cc(C=O)ccc3n(C)c21` belongs 284 °C; to `CC(=O)OCC1OC(n2cc(C)c(-n3cncn3)nc2=O)CC1N=[N+]=[N-]` (stereo not drawn), 143 to 145 °C.
In the case of `CCCCc1nc(C(=O)O)c(Sc2ccc(OC)cc2)n1Cc1cc2c(cc1Cl)OCO2`, the melting point was determined as 82 °C.
To `O=C(CCc1cccc(Oc2ccccc2)c1)c1ccc[nH]1` belongs 75 to 76 °C; to `Fc1ccccc1C1CCN(Cc2ccccc2)CCN1Cc1ccccc1` (stereo not drawn), 82 to 83 °C; to `CCOC(=O)c1c(C)nc(Cl)c([N+](=O)[O-])c1Cl`, 45 to 46 °C.
To `COc1ccc(OC2COc3ccc(OCc4nc5cc(F)ccc5s4)cc3C2O)cc1` (stereo not drawn) belongs 180 to 181 °C.
As for `COC(=O)C(Cc1cc(OC)cc(OC)c1)c1ccc(Oc2ccc(C=C3SC(=O)NC3=O)cc2)cc1` (stereo not drawn), the melting point fell in the range of 104 to 106 °C.
To `N#Cc1ccc(C=O)c(-c2ccccc2)c1` belongs 75 °C; to `COc1ccc(C=CC(=O)c2c(OC)cc(OC)cc2OC(=O)c2ccccc2)cc1`, 134 °C; to `COC(=O)c1ccc(F)cc1OC(=S)N(C)C`, 107 °C.
`COC(C)C(=O)Nc1c(C(=O)c2ccccc2)[nH]c2cc(Cl)ccc12` (stereo not drawn) yielded a melting point of 169 to 171 °C.
To `CCc1nc2c(N)nc3cc(-c4ccncc4)ccc3c2n1CC(C)(C)O` belongs more than 250 °C; to `Fc1ccc2[nH]c3c(c2c1)CN(CCc1ccncc1)CC3`, 233 to 235 °C.
To `CC(=O)ON=C(N)c1ccc(C(=O)N2CCN(C(=O)[C@@H]3CCCN3S(=O)(=O)c3ccc(Cl)c(COc4cccc5ncc(C)nc45)c3Cl)CC2)cc1` belongs 161 to 165 °C.
On to `CCOC(=O)NC(C)C(=O)c1ccc(O)c(Cl)c1` (stereo not drawn), for which the melting point fell in the range of 106 to 108 °C.
To `CCOCCn1cc2c(C3C(=O)Nc4ccc(Cl)cc43)nc(NCCc3cccnc3)nc2n1` (stereo not drawn) belongs 224 to 226 °C; to `CN(CCCC(C(N)=O)(c1ccccc1)c1ccccc1)CCc1ccccn1`, 134 to 136 °C.
To `C/C=C\Cn1c(C(=O)c2cc(C)cc(C)c2)c(CC)c(=O)[nH]c1=O` belongs 199 to 200 °C; to `CCCC(=O)n1ccc(-c2ccc(C(=O)N3Cc4cccn4Cc4ccccc43)cc2)n1`, 105 to 110 °C.
As for `O=C(CCCCN1CCOCC1)c1ccc2c(c1)Cc1cc(C(=O)CCCCN3CCOCC3)ccc1-2`, the melting point was 134 to 136 °C.
To `Cc1ccc(OCCCCCNc2cccc3c2C(=O)c2cccc4[nH]nc-3c24)cc1` belongs 122 to 125 °C.
With `O=c1[nH]c(=O)n(CCCCN2CCC(OC(c3ccccc3)c3ccccc3)CC2)c2ccc([N+](=O)[O-])cc12`, the melting point fell in the range of 211 to 213 °C.
To `O=C(O)Cc1cc(-c2ccc(Cl)cc2)n(-c2ccc(OCc3ccc4ccccc4n3)cc2)n1` belongs 228 to 230 °C.
To `COCCn1ccc2ccc(NC(=O)/C=C/c3ccc(C(C)(C)C)cc3)cc21` belongs 133 °C; to `CCOC(=O)c1nc(Cc2ccccc2[N+](=O)[O-])n[nH]1`, 135 to 140 °C.
To `Nc1c2c(nc3ccccc13)C1C=CC2C1` (stereo not drawn) belongs 123 °C; to `O=C(OCC1CC1)c1ncn2c1[C@@H]1CCCN1C(=O)c1cc(Cl)ccc1-2`, 146 to 148 °C.
Take `CC(C)Cn1cnc2cnc3ccc(OCc4ccccc4)cc3c21`: the melting point fell in the range of 129 to 133 °C.
To `CCOC(=O)C(=O)c1ccc(OCCOc2ccc3ccccc3c2)s1` belongs 98 to 100 °C; to `CCOC(=O)c1ccc(NC(=O)NCCN2CCN=C2c2ccncc2)cc1`, 120 °C.
To `COCOc1c(OC)cc(C=CC(=O)c2c(OC)cc(OC)c(CC=C(C)C)c2O)cc1OC` belongs 128 to 129 °C.
On to `COc1cccc2nc(-c3ccc(OCCNC(C)C)c(-c4ccc(S(C)(=O)=O)cc4)n3)[nH]c(=O)c12`, for which the melting point is 222 to 223 °C.
In turn, `CCCC(=O)NCCc1ccc(S(=O)(=O)N2CCN(C3CCCCC3)C2=N)s1` returned a melting point of 121 to 125 °C.
In turn, `CCOC(=O)c1cc2c3cccc(OC)c3ncn2c1` returned a melting point of 154 to 155 °C.
In the case of `COc1cc2c(=O)c(C(N)=O)c[nH]c2cc1F`, the melting point is more than 300 °C.
To `Nc1c(F)c(N2CCC(=NO)CC2)c(F)c2c1c(=O)c(C(=O)O)cn2C1CC1` belongs 298 to 300 °C; to `O=C(Cc1csc(Nc2ccccc2)n1)NC1CCN(Cc2ccc(Cl)c(Cl)c2)CC1`, 191 to 192 °C; to `CN1C(=O)CNC2=C1C=NC(Cl)=CN2c1ccccc1`, 105 to 107 °C.
To `CCCNC(=O)N(C)C1CCN(c2ncnc3cc(OC)c(OC)cc23)CC1` belongs 209 to 211 °C; to `COC(=O)c1cc(C(C)=O)c(O)cc1O`, 124 to 126 °C; to `CCOC(=O)Cc1nc(-c2ccc(Cl)cc2)sc1Sc1ccccc1`, 71 to 73 °C.
Turning to `CC(C)c1ccc(OCC(=O)Cl)cc1`, the melting point was 104 to 105 °C.
To `CC(NC(=O)OCc1ccccc1)C(=O)NCCc1ccccc1` (stereo not drawn) belongs 125 to 126 °C.
To `C=CC(O)(c1cccnc1)C(O)c1ccccc1Cl` (stereo not drawn) belongs 110 to 112 °C.
To `CC(C)(C)c1cnc(C(=O)Nc2cc(-c3cc(NC4CCCNC4)c(=O)[nH]n3)ccc2F)cn1` (stereo not drawn) belongs 140 to 141 °C; to `CCOC(=O)C(C(=O)c1ccc(C#N)cc1)C1c2ccccc2Oc2ccccc21` (stereo not drawn), 141 °C; to `CCOC(=O)c1cn(C2CC2)c2c(F)c(NCC(O)CO)c(F)cc2c1=O` (stereo not drawn), 173 to 175 °C.
With `CCCCC1C(=O)N(C(=O)NCCc2ccc(S(=O)(=O)NC(=O)NC3CCC(C)CC3)cc2)CCC1C` (stereo not drawn), the melting point lay in the range of 131 to 133 °C.
In turn, `COC(=O)c1cscc1NC(=O)COc1ccc(-c2ccccc2Cl)cn1` registered a melting point of 151 to 155 °C.
Compound `CCOC(=O)C=Cc1ccc(OCc2csc(-c3ccccc3)n2)c(OC)c1` registered a melting point of 92 to 93 °C.
The compound `ON=C1CCN(C2c3ccccc3COc3ccc(Br)cc32)CC1` (stereo not drawn) displayed a melting point of 223 to 225 °C.
As for `Cc1noc(NS(=O)(=O)c2ccccc2-c2ccc(-c3ncco3)cc2Cn2cccn2)c1C`, the melting point fell in the range of 140 to 146 °C.
To `CCOC(=O)Cc1ccccc1Oc1ccc(COc2cc(CC)nc3c2CCCC3)cc1` belongs 89 to 90 °C.
To `O=C1CN=C2C(=O)CC=CC2=N1` belongs 208 to 211 °C; to `CC(C)(C)CNc1nc(C#Cc2ccccc2)ccc1[N+](=O)[O-]`, 90 to 92 °C; to `C=CCn1nc(C)c(C(=O)c2ccc(Cl)cc2Cl)c1O`, 161 to 163 °C.
To `COC(=O)c1cc(OC)nc(C)n1` belongs 90 to 93 °C; to `CN(C)C=CC(=O)c1ccc2ccccc2c1`, 100 to 101 °C.
In turn, `CC(=O)c1sc(N2CCN(Cc3cccc(C(F)(F)F)c3)C2=O)nc1C` registered a melting point of 149 to 151 °C.
To `Cc1nc2c(N)nc3ccccc3c2n1CCOCCNS(=O)(=O)C(C)C` belongs 172 to 175 °C; to `COc1ccc(N2CCN(c3c(C)c(C)c4c(c3C)C(O)(c3cccc(C)c3)C(C)(C)O4)CC2)cc1` (stereo not drawn), 122 to 125 °C; to `Cc1c(C)c2c(c(C)c1NC=O)CC(C)(CSc1ccccc1)O2` (stereo not drawn), 130 to 131 °C.
To `Fc1ccc(-c2ccc(C3OCCO3)cc2)cc1F` belongs 89 to 91 °C; to `CC1CCCN(C2c3cc4nonc4cc3OC(C)(C)C2O)C1=O` (stereo not drawn), 146 to 149 °C.
To `CCOC(=O)c1cn(-c2ncns2)c2cc(F)c(F)cc2c1=O` belongs 149 to 152 °C.
`CCOC(=O)C(=Cc1cc(C(=O)OCC)c(=O)n2ccccc12)C(=O)OCC` displayed a melting point of 149 to 151 °C.
To `COc1cc2c(cc1OC)C(=O)C(=Cc1ccc(O)cc1)CC2` belongs 197 to 199 °C; to `O=C(NCc1ccccn1)Nc1cc(N2CC(CCc3ccccc3)OC2=O)ccn1` (stereo not drawn), 194 to 195 °C; to `C=CC1CCC2c3ccc(OCC)c(F)c3OC2C1` (stereo not drawn), 141 °C.
On to `CC(C)(C)c1cc(-c2nnc(N)o2)cc(C(C)(C)C)c1O`, for which the melting point fell in the range of 244 to 245 °C.
`COc1cc(-c2ncsc2-c2ccc(C(F)(F)F)cc2)cc(OC)c1OC` registered a melting point of 110 to 113 °C.
The compound `O=C(O)CP(=O)(O)CCCc1ccccc1` had a melting point of 118 to 119 °C.
To `CC(=O)N1CC(C)C(=O)N(C(C)=O)C1=O` (stereo not drawn) belongs 130 to 131 °C.
